How the values were obtained:
human orexin 2 receptor [1] = molecular target: T1, human orexin 2 receptor (Homo sapiens (Human), UniProt O43614); test: Human orexin 2 receptor Ca2+ mobilization assay (FLIPR, PFSK cells, orexin B 100 nM); assay type: cell-based; settings: modified Cheng-Prusoff correction, read-out: OR 2 Kb
human orexin 2 receptor [2] = molecular target: T1, human orexin 2 receptor; test: Human orexin 2 receptor radioligand binding ([3H]EMPA competition, HEK293 cells); settings: HEK293 cells expressing human orexin-2 receptor, read-out: OR 2 Ki

T1 sequence (O43614 whole entry): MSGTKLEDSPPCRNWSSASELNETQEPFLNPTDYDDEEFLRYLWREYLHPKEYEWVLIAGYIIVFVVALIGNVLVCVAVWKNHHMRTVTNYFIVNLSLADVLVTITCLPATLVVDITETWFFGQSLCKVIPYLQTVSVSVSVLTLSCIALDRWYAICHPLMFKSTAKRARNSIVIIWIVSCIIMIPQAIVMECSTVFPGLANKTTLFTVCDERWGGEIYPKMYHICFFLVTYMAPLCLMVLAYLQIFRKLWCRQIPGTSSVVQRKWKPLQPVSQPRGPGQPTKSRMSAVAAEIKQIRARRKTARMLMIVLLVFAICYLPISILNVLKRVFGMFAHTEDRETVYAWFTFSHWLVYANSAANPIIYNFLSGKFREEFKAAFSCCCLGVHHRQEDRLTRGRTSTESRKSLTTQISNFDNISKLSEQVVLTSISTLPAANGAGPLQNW

| Kb (human orexin 2 receptor [1]) | Ki (human orexin 2 receptor [2]) | SMILES |
| --- | --- | --- |
|  | 10000 nM | Cc1cc(C)nc(N2CC3CN(C(=O)c4c(F)cccc4-c4ccnnc4)CC3C2)n1 (stereo not drawn) [Example 488, 2-(4,6-Dimethylpyrimidin-2-yl)-5-[(2-fluoro-6-pyridazin-4-ylphenyl)carbonyl]octahydropyrrolo[3,4-c]pyrrole] |
|  | 45 nM | Cc1ccnc(-c2cccc(F)c2C(=O)N2CC3CN(c4nc(C)cc(C)n4)CC3C2)c1 (stereo not drawn) [Example 489, 2-(4,6-Dimethylpyrimidin-2-yl)-5-{[2-fluoro-6-(4-methylpyridin-2-yl)phenyl]carbonyl}octahydropyrrolo[3,4-c]pyrrole] |
|  | 16 nM | Cc1cc(C)nc(N2CC3CN(C(=O)c4c(F)cccc4-c4ncco4)CC3C2)n1 (stereo not drawn) [Example 491, 2-(4,6-Dimethylpyrimidin-2-yl)-5-{[2-fluoro-6-(1,3-oxazol-2-yl)phenyl]carbonyl}octahydropyrrolo[3,4-c]pyrrole] |
|  | 10000 nM | Cc1cc(C)nc(N2CC3CN(C(=O)c4cc(F)ccc4-c4cccn4C)CC3C2)n1 (stereo not drawn) [Example 493, 2-(4,6-Dimethylpyrimidin-2-yl)-5-{[5-fluoro-2-(1-methyl-1H-pyrrol-2-yl)phenyl]carbonyl}octahydropyrrolo[3,4-c]pyrrole] |
|  | 180 nM | Cc1cc(C)nc(N2CC3CN(C(=O)c4cc(F)ccc4-c4cscn4)CC3C2)n1 (stereo not drawn) [Example 494, 2-(4,6-Dimethylpyrimidin-2-yl)-5-{[5-fluoro-2-(1,3-thiazol-4-yl)phenyl]carbonyl}octahydropyrrolo[3,4-c]pyrrole] |
|  | 26 nM | Cc1nc(N2CC3CN(C(=O)c4cccc(F)c4-c4ncco4)CC3C2)ncc1F (stereo not drawn) [Example 496, 2-(5-Fluoro-4-methylpyrimidin-2-yl)-5-{[3-fluoro-2-(1,3-oxazol-2-yl)phenyl]carbonyl}octahydropyrrolo[3,4-c]pyrrole] |

The remaining lines, values behind:

| SMILES | Kb (human orexin 2 receptor [1]) | Ki (human orexin 2 receptor [2]) |
| --- | --- | --- |
| Cc1noc(-c2c(F)cccc2C(=O)N2CC3CN(c4ncc(F)c(C)n4)CC3C2)n1 (stereo not drawn) [Example 440, 2-{[3-Fluoro-2-(3-methyl-1,2,4-oxadiazol-5-yl)phenyl]carbonyl}-5-(5-fluoro-4-methylpyrimidin-2-yl)octahydropyrrolo[3,4-c]pyrrole] | 15 nM | 64 nM |
| Cc1cc(C)nc(N2CC3CN(C(=O)c4c(F)cccc4-c4ncccc4F)CC3C2)n1 (stereo not drawn) [Example 481, 2-(4,6-Dimethylpyrimidin-2-yl)-5-{[2-fluoro-6-(3-fluoropyridin-2-yl)phenyl]carbonyl}octahydropyrrolo[3,4-c]pyrrole] |  | 24 nM |
| Cc1cc(C)nc(N2CC3CN(C(=O)c4c(F)cccc4-c4cn(C)cn4)CC3C2)n1 (stereo not drawn) [Example 482, 2-(4,6-Dimethylpyrimidin-2-yl)-5-{[2-fluoro-6-(1-methyl-1H-imidazol-4-yl)phenyl]carbonyl}octahydropyrrolo[3,4-c]pyrrole] |  | 30 nM |
| COc1ccnc(-c2cccc(F)c2C(=O)N2CC3CN(c4nc(C)cc(C)n4)CC3C2)n1 (stereo not drawn) [Example 483, 2-(4,6-Dimethylpyrimidin-2-yl)-5-{[2-fluoro-6-(4-methoxypyrimidin-2-yl)phenyl]carbonyl}octahydropyrrolo[3,4-c]pyrrole] |  | 11 nM |
| Cc1cc(C)nc(N2CC3CN(C(=O)c4c(F)cccc4-c4ccc(Cl)cn4)CC3C2)n1 (stereo not drawn) [Example 484, 2-{[2-(5-Chloropyridin-2-yl)-6-fluorophenyl]carbonyl}-5-(4,6-dimethylpyrimidin-2-yl)octahydropyrrolo[3,4-c]pyrrole] |  | 230 nM |
| CSc1nccc(-c2cccc(F)c2C(=O)N2CC3CN(c4nc(C)cc(C)n4)CC3C2)n1 (stereo not drawn) [Example 485, 2-(4,6-Dimethylpyrimidin-2-yl)-5-({2-fluoro-6-[2-(methylsulfanyl)pyrimidin-4-yl]phenyl}carbonyl)octahydropyrrolo[3,4-c]pyrrole] |  | 84 nM |
| Cc1cc(C)nc(N2CC3CN(C(=O)c4c(F)cccc4-c4cscn4)CC3C2)n1 (stereo not drawn) [Example 486, 2-(4,6-Dimethylpyrimidin-2-yl)-5-{[2-fluoro-6-(1,3-thiazol-4-yl)phenyl]carbonyl}octahydropyrrolo[3,4-c]pyrrole] |  | 15 nM |
| Cc1cc(C)nc(N2CC3CN(C(=O)c4c(F)cccc4-c4cncs4)CC3C2)n1 (stereo not drawn) [Example 487, 2-(4,6-Dimethylpyrimidin-2-yl)-5-{[2-fluoro-6-(1,3-thiazol-5-yl)phenyl]carbonyl}octahydropyrrolo[3,4-c]pyrrole] |  | 54 nM |

From patent US9586962B2, “Disubstituted octahydropyrrolo [3,4-C] pyrroles as orexin receptor modulators” (Janssen Pharmaceutica NV, priority 2011, dated 2017)
